Source: patent US20100204508A1, “DENDRITIC COMPOUND AND USE THEREOF” (Industrial Technology Research Institute, priority 2004, published 2010)

How the values were obtained:
[1] = B0 = 1.0T; cited from earlier work
[2] = magnetizing relaxation rate via NMR (R1, R2); assay type: physicochemical; settings: B0 = 0.47 T, vertical relative relaxation

For `CNC[C@H](O)[C@@H](O)[C@H](O)[C@H](O)CO.CNC[C@H](O)[C@@H](O)[C@H](O)[C@H](O)CO.O=C([O-])CN(CCN(CC(=O)[O-])CC(=O)O)CCN(CC(=O)[O-])CC(=O)O.[Gd+3]` [Magnevist ™], the “R1 (Literature)” value [1] is listed as “R1 = 3.4” and the “R1(20 MHz)” value [2] is listed as 6.14.
